Literature values, collected in publication PMC11357446, “Searching for Novel HDAC6/Hsp90 Dual Inhibitors with Anti-Prostate Cancer Activity: In Silico Screening and In Vitro Evaluation” (Pharmaceuticals, 2024).

Tests used:
[1] = biological target: Hsp90 (UniProt ID: P07900); design: method as in ChEMBL [62]; settings: ChEMBL record on recombinant protein; ref ChEMBL [62]; read-out: Hsp90 IC50 (Standard Value); cited from earlier work
[2] = biological target: HDAC6 (UniProt ID: Q9UBN7); design: method as in ChEMBL [62]; settings: ChEMBL record on recombinant protein; ref ChEMBL [62]; read-out: HDAC6 IC50 (Standard Value); cited from earlier work

SMILES | IC50 [1] | IC50 [2]
CC(C)c1cc(-c2onc(C(=O)N[C@@H](C(=O)N3CC(F)(F)C3)C(C)C)c2-c2ccc(CN3CCOCC3)cc2)c(O)cc1O [CHEMBL4096929] | 39 nM | –
CC(C)c1cc(C(=O)N2Cc3ccc(NCc4ccc(C(=O)NO)cc4)cc3C2)c(O)cc1O [CHEMBL4782478] | 66 nM | 33.3 nM
